Read-outs that look alike come from different tables or passages of the source.
How the values were obtained:
[1] = target: T1, GST fusion human ERK2 protein (Homo sapiens, UniProt P28482); assay: ERK2 enzyme assay (2); assay type: biochemical; settings: read-out: ERK2 enzyme inhibitory activity (2)
T1 construct: purchased Carna Biosciences, Inc; host or cells: E. coli expression system
Method in brief: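 GST-tagged human ERK2 expressed in E. coli (1.25 nmol/L) was preincubated with compound for 15 min at room temperature in pH 7.5 Hepes buffer with MgCl2, DTT and Brij35. Reaction with FL-Peptide 8 (final 4.25 μmol/L) and ATP (final 1 mmol/L) ran 120 min at 25 °C; EDTA stopped it, and phosphorylated peptide was quantified by mobility-shift separation to derive IC50.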

[2] = target: T2, human PI3Kα protein (Homo sapiens, UniProt P42336); assay: PI3Kα enzyme assay (ADP-Glo); assay type: biochemical; settings: read-out: PI3Kα enzyme inhibitory activity
T2 construct: purchased Carna Biosciences, Inc; host or cells: baculovirus expression system
Method in brief: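 Biotinylated human PI3Kα (baculovirus-expressed, 4.5 nmol/L) pre-incubated 15 min with compound in Tris-HCl pH 7.5, MgCl2, BSA; reaction 60 min at 25° C with 50 μmol/L PIP2 and 100 μmol/L ATP final. ADP quantified by ADP-Glo luminescence; IC50 calculated.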

T2 sequence (P42336 whole entry): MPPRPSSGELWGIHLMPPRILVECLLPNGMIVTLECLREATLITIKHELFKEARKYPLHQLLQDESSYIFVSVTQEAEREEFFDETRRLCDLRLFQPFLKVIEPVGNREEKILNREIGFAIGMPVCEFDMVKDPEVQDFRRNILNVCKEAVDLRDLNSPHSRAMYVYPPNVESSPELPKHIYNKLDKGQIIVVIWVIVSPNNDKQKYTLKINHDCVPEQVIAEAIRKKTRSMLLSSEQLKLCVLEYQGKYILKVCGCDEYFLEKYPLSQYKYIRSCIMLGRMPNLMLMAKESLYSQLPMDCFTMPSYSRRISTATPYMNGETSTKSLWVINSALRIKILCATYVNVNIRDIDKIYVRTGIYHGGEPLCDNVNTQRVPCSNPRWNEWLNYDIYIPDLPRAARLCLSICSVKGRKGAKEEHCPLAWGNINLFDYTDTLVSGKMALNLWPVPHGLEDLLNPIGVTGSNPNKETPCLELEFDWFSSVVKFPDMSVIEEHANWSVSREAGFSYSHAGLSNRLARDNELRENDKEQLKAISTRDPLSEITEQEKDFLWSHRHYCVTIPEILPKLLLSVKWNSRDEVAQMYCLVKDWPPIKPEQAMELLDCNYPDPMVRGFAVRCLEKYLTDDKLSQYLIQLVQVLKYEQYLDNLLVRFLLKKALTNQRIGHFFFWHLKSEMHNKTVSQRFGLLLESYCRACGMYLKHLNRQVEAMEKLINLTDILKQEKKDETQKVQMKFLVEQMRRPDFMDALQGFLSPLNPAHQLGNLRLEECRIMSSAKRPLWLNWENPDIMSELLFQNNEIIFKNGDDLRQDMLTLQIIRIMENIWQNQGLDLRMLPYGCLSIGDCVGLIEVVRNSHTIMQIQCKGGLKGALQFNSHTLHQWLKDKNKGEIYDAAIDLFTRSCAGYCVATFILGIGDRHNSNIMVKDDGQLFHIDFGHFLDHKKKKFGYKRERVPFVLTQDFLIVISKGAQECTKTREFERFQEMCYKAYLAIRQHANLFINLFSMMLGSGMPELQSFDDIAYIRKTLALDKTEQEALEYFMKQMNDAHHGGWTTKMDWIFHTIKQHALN
T2 sequence (P27986 whole entry partner): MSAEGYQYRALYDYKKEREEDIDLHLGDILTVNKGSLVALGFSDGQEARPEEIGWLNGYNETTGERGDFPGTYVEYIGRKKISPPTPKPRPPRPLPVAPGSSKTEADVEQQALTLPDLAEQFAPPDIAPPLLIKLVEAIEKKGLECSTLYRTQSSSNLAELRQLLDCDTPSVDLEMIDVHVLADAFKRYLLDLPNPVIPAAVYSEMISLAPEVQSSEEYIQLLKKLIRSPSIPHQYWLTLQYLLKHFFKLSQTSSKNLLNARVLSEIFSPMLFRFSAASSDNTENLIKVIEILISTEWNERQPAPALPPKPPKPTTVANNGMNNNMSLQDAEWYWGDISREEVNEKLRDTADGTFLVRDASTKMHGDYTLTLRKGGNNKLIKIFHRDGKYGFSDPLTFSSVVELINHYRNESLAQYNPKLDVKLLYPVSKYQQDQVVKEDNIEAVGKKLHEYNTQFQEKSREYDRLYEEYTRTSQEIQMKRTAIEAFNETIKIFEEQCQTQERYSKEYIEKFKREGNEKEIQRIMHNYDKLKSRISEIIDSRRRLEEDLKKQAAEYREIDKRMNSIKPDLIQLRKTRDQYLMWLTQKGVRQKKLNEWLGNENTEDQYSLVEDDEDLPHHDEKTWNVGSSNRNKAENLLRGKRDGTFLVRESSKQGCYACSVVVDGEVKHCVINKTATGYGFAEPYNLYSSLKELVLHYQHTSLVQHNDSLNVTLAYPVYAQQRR
T1 sequence (P28482 whole entry, the tested form may be a part): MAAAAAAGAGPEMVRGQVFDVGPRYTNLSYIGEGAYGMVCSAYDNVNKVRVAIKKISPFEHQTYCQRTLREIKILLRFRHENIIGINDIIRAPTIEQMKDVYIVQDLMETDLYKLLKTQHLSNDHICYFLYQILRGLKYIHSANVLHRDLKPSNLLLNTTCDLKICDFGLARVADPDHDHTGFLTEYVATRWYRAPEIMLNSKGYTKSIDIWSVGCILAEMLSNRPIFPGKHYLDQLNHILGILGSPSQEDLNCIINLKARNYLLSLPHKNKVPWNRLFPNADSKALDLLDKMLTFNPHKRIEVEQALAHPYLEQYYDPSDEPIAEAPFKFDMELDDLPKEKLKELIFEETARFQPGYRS

Row | SMILES | IC50 ([1]; ERK2 enzyme assay (2)) [nM] | IC50 [2] [nM] | IC50 [1] [nM]
1 | CC(C)c1cnnc(Nc2ccc3ncc(-c4cnn(CCOC5CN(C(=O)OC(C)(C)C)C5)c4)cc3n2)c1 [Example 0739, tert-Butyl 3-(2-(4-(6-((5-isopropylpyridazin-3-yl)amino)-1,5-naphthyridin-3-yl)-1H-pyrazol-1-yl)ethoxy)azetidine-1-carboxylate] | < 1000 | 1000 to 10000 | 
2 | CC(C)Oc1cnnc(Nc2ccc3ncc(-c4cnn(CCCN5CCOCC5)c4)cc3n2)c1 [Example 0501] | 1000 to 10000 | 1000 to 10000 | 
3 | CC(C)c1cnnc(Nc2ccc3ncc(-c4cn(C)nc4NC4CCCCCC4)cc3n2)c1 [Example 0949] |  | 1000 to 10000 | 1000 to 10000
4 | CC(C)c1cnnc(Nc2ccc3ncc(-c4cccn(C)c4=O)cc3n2)c1 [Example 0595, 3-(6-((5-Isopropylpyridazin-3-yl)amino)-1,5-naphthyridin-3-yl)-1-methylpyridin-2(1H)-one] | < 1000 | 1000 to 10000 | 
5 | COc1ccc(-c2cnc3ccc(Nc4cc(C(C)C)cnn4)nc3c2)cn1 [Example 0590] | < 1000 | 1000 to 10000 | 
6 | CC(C)c1cnnc(Nc2ccc3ncc(-n4cnc5ccccc54)cc3n2)c1 [Example 0512] | < 1000 | 1000 to 10000 | 
7 | CC(C)c1cnnc(Nc2ccc3ncc(-c4cncnc4)cc3n2)c1 [Example 0604] | < 1000 | 10000 to 50000 | 
8 | CC(=O)N1CC(Cn2cc(-c3cnc4ccc(Nc5cc(C(C)C)cnn5)nc4c3)cn2)C1 [Example 0438, 1-(3-((4-(6-((5-isopropylpyridazin-3-yl)amino)-1,5-naphthyridin-3-yl)-1H-pyrazol-1-yl)methyl)azetidin-1-yl)ethanone] | < 1000 | < 1000 | 
9 | Cc1ccc(S(=O)(=O)NC2CN(CCCn3cc(-c4cnc5ccc(Nc6cc(C(C)C)cnn6)nc5c4)cn3)C2)cc1 [Example 0701] | < 1000 | < 1000 | 
10 | CC(C)c1cnnc(Nc2ccc3ncc(-c4ccn(C)c(=O)c4)cc3n2)c1 [Example 0603] | < 1000 | < 1000 | 
11 | CC(C)c1cnnc(Nc2ccc3ncc(-c4cnc(N5CCNCC5)s4)cc3n2)c1 [Example 0502] | < 1000 | < 1000 | 
12 | CC(C)c1cnnc(Nc2ccc3ncc(N4CCC(=O)N(C)CC4)cc3n2)c1 [Example 0862] | < 1000 | < 1000 | 
13 | Cc1cn(-c2cnc3ccc(Nc4cc(C(C)C)cnn4)nc3c2)c(C)n1 [Example 0698, 7-(2,4-dimethyl-1H-imidazol-1-yl)-N-(5-isopropylpyridazin-3-yl)-1,5-naphthyridine-2-amine] | < 1000 | 1000 to 10000 | 
14 | Cc1ccncc1-c1cnc2ccc(Nc3cc(C(C)C)cnn3)nc2c1 [Example 0600] | < 1000 | 1000 to 10000 | 
15 | Cn1cc(-c2cnc3ccc(Nc4cc(C5CCOCC5)cnn4)nc3c2)cn1 [Example 0759] | < 1000 | < 1000 | 
16 | Cc1cnnc(Nc2ccc3ncc(-c4cn(C)nc4-c4ccc(C#N)nc4)cc3n2)c1 [Example 0457] | 10000 to 50000 | < 1000 | 
17 | Cc1nn(C)cc1-c1cnc2ccc(Nc3cc(C(C)C)cnn3)nc2c1C [Example 0852, 7-(1,3-Dimethyl-1H-pyrazol-4-yl)-N-(5-isopropylpyridazin-3-yl)-8-methyl-1,5-naphthyridine-2-amine] | < 1000 | < 1000 | 
18 | Cc1cn(-c2cnc3ccc(Nc4cc(C(C)C)cnn4)nc3c2)cn1 [Example 0494, N-(5-isopropylpyridazin-3-yl)-7-(4-methyl-1H-imidazol-1-yl)-1,5-naphthyridine-2-amine] | < 1000 | < 1000 | 
19 | Cc1nc2ccc(Nc3cc(C(C)C)cnn3)nc2cc1-c1cnn(C)c1 [Example 0849, N-(5-isopropylpyridazin-3-yl)-6-methyl-7-(1-methyl-1H-pyrazol-4-yl)-1,5-naphthyridine-2-amine] | < 1000 | 1000 to 10000 | 
20 | CC1CN(CCCn2cc(-c3cnc4ccc(Nc5cc(C(C)C)cnn5)nc4c3)cn2)CCO1 (stereo not drawn) [Example 0608] | < 1000 | < 1000 | 
21 | CCOC1CN(CCCn2cc(-c3cnc4ccc(Nc5cc(C(C)C)cnn5)nc4c3)cn2)C1 [Example 0676, N-(5-isopropylpyridazin-3-yl)-7-(1-(3-(3-ethoxyazetidin-1-yl)propyl)-1H-pyrazol-4-yl)-1,5-naphthyridine-2-amine] | < 1000 | < 1000 | 
22 | CC(C)c1cnnc(Nc2ccc3ncc(-c4cnc(N5CCN(C)CC5)s4)cc3n2)c1 [Example 0498, N-(5-isopropylpyridazin-3-yl)-7-(2-(4-methylpiperazin-1-yl)thiazol-5-yl)-1,5-naphthyridine-2-amine] | < 1000 | < 1000 | 
23 | CC(C)c1cnnc(Nc2ccc3ncc(-c4cn(C)nc4N4CC5(COC5)C4)cc3n2)c1 [Example 0934] |  | < 1000 | < 1000
24 | CC(C)c1cnnc(Nc2ccc3ncc(N4C[C@@H](C)O[C@@H](C)C4)cc3n2)c1 [Example 0873] | < 1000 | < 1000 | 

Other lines, results leading:

Row | IC50 ([1]; ERK2 enzyme assay (2)) [nM] | IC50 [2] [nM] | IC50 [1] [nM] | SMILES
25 | < 1000 | < 1000 |  | COc1cnnc(Nc2ccc3ncc(-c4cnn(CCCN5CCOCC5)c4)cc3n2)c1 [Example 0496, N-(5-methoxypyridazin-3-yl)-7-(1-(3-morpholinopropyl)-1H-pyrazol-4-yl)-1,5-naphthyridine-2-amine]
26 | < 1000 | < 1000 |  | COC(CN1CCOCC1)Cn1cc(-c2cnc3ccc(Nc4cc(C(C)C)cnn4)nc3c2)cn1 (stereo not drawn) [Example 0730]
27 | < 1000 | < 1000 |  | CC(=O)N1CC(OCCn2cc(-c3cnc4ccc(Nc5cc(C(C)C)cnn5)nc4c3)cn2)C1 [Example 0754, 1-(3-(2-(4-(6-((5-isopropylpyridazin-3-yl)amino)-1,5-naphthyridin-3-yl)-1H-pyrazol-1-yl)ethoxy)azetidin-1-yl)ethanone]
28 | < 1000 | < 1000 |  | CC(C)CC(=O)N1CCC(Cn2cc(-c3cnc4ccc(Nc5cc(C(C)C)cnn5)nc4c3)cn2)CC1 [Example 0535]
29 |  | < 1000 | < 1000 | CC(C)c1cnnc(Nc2ccc3ncc(-c4cn(C)nc4N(C)C4COC4)cc3n2)c1 [Example 0943]
30 | < 1000 | < 1000 |  | CC(C)c1cnnc(Nc2ccc3ncc(-n4cnc(CC#N)c4)cc3n2)c1 [Example 0508, 2-(1-(6-((5-Isopropylpyridazin-3-yl)amino)-1,5-naphthyridin-3-yl)-1H-imidazol-4-yl)acetonitrile]
31 | < 1000 | < 1000 |  | CC(C)c1cnnc(Nc2ccc3ncc(-c4cnn(CCCN5CCN(c6ccccn6)CC5)c4)cc3n2)c1 [Example 0444]
32 | < 1000 | < 1000 |  | CC(C)c1cnnc(Nc2ccc3ncc(-c4cn(C)nc4COc4ccccc4)cc3n2)c1 [Example 0803]
33 | < 1000 | < 1000 |  | CC(C)c1cnnc(Nc2ccc3ncc(-c4cnn(CCCN5CCN(c6cccnc6)CC5)c4)cc3n2)c1 [Example 0446]
34 | 1000 to 10000 | < 1000 |  | CC(C)c1cnnc(Nc2ccc3ncc(N4CCC(C(N)=O)C4)cc3n2)c1 (stereo not drawn) [Example 0898]
35 | < 1000 | < 1000 |  | CC(C)c1cnnc(Nc2ccc3ncc(-c4cn(C)nc4-c4ccnc(N)c4)cc3n2)c1 [Example 0752, 7-(3-(2-aminopyridin-4-yl)-1-methyl-1H-pyrazol-4-yl)-N-(5-isopropylpyridazin-3-yl)-1,5-naphthyridine-2-amine]
36 | < 1000 | < 1000 |  | CCC(CC)c1cnnc(Nc2ccc3ncc(-c4cnn(CCOC5CNC5)c4)cc3n2)c1 [Example 0816]
37 | < 1000 | < 1000 |  | CC(C)c1cnnc(Nc2ccc3ncc(N4CCOC[C@H]4C)cc3n2)c1 [Example 0762, (R)-N-(5-isopropylpyridazin-3-yl)-7-(3-methylmorpholino)-1,5-naphthyridine-2-amine]
38 | < 1000 | < 1000 |  | CC(C)c1cnnc(Nc2ccc3ncc(-c4cnn(CCCN5CC(OC(F)F)C5)c4)cc3n2)c1 [Example 0681]
39 |  | < 1000 | < 1000 | CC(C)c1cnnc(Nc2ccc3ncc(-c4cn(C)nc4CN4CCN(C)CC4)cc3n2)c1 [Example 0912, N-(5-isopropylpyridazin-3-yl)-7-(1-methyl-3-((4-methylpiperazin-1-yl)methyl)-1H-pyrazol-4-yl)-1,5-naphthyridine-2-amine]
40 | < 1000 | < 1000 |  | CC(C)c1cnnc(Nc2ccc3ncc(-c4cnn(CC(CN5CCOCC5)OCC5CC5)c4)cc3n2)c1 (stereo not drawn) [Example 0745]
41 | < 1000 | < 1000 |  | CC(C)c1cnnc(Nc2ccc3ncc(-c4cn(C)nc4-c4ccc(OCCN5CCCCC5)cc4)cc3n2)c1 [Example 0778]
42 | < 1000 | < 1000 |  | Cc1nn(C)cc1-c1cnc2ccc(Nc3cc(C4CCOCC4)cnn3)nc2c1 [Example 0760, 7-(1,3-Dimethyl-1H-pyrazol-4-yl)-N-(5-(tetrahydro-2H-pyran-4-yl)pyridazin-3-yl)-1,5-naphthyridine-2-amine]
43 | < 1000 | < 1000 |  | COCC(C)(C)c1cnnc(Nc2ccc3ncc(-c4cnn(C)c4)cc3n2)c1 [Example 0562]
44 | < 1000 | < 1000 |  | CC(C)c1cnnc(Nc2ccc3ncc(-c4cnn(Cc5ccccc5[N+](=O)[O-])c4)cc3n2)c1 [Example 0703, N-(5-isopropylpyridazin-3-yl)-7-(1-(2-nitrobenzyl)-1H-pyrazol-4-yl)-1,5-naphthyridine-2-amine]
45 |  | < 1000 | < 1000 | CC(C)c1cnnc(Nc2ccc3ncc(-c4cn(C)nc4N4CCC4)cc3n2)c1 [Example 0932]

Reference: patent US9783536B2, “Nitrogen-containing heterocyclic compound or salt thereof” (FUJIFILM Corporation, priority 2013, dated 2017)
